Assays:
Ls174T cells = assay: Clonal spheroid assay, Ls174T; format: cell-based, human; conditions: Ls174T pretreated at 5µM; after three passes
Method: (§1) Cells were treated with different concentrations of compounds for 16h in 2D adherent culture, washed, harvested and plated in suspension with serum-free DMEM-F12 media with B27 supplement (1:50 dilution) at 1 cell/well in 96-well format in triplicates. Plated cells were monitored to ensure the presence of single cells in each well and spheroids counted and photographed after 10 days for each round.
(§2) To directly test for a long-lasting repression of WNT-TCF targets by CAP2 clonogenic properties of cancer stem cells were tested. DLD1 and LS174T cells were first treated with CAP2 in 2D culture in vitro followed by removal of the drug, washing with PBS, and plating under non-adherent 3D conditions for clonal spheroid growth in the absence of the drug. After primary spheroid growth, the spheroids were dissociated and replated as single cells for secondary and subsequent clonogenic spheroid formation, also in the absence of the compound of the invention. As negative control DMSO-treatment was used.

CC14 cells [1] = assay: Epithelial island morphology of CC14 cells; format: cell-based, human; conditions: 1 µM, 24h
Method: Similar phenotypes were only observed at 10 µM of CAP1 or 5 µM of CAP3. CAP2 was thus chosen for further detailed analyses.

DLD1 cells = assay: Clonal spheroid assay, DLD1; format: cell-based, human; conditions: DLD1 pretreated in 2D; normalized over DMSO controls (Figure 11A)
Method: as §1, §2

CYCLIN D1 = assay: Western blot of CYCLIN D1 in DLD1 cells; format: cell-based, human; conditions: 5 µM CAP2 (batch 3), vs DMSO
Method: Western blot performed according to standard methods.
The effect of CAP2 on WNT-TCF signaling the levels of direct TCF target CYCLIN D1 were measured since it is useful to measure TCF response (Melotti et al., 2014, sura).

CC14 cells [2] = assay: Live imaging cell proliferation (growth curves); format: cell-based, human; conditions: 150 nM, vs DMSO
Method: Primary colon cells CC14 were cultured in DMEM-F12 with 10% FBS under standard in vitro conditions.
Live imaging and quantification of total cell mass was performed using a Widefield plate reader, ImageXpress XL with an inbuilt temperature and CO2 controller, and a CoolSnap HQ camera (Photometrics).

DLD1 xenografts = assay: DLD1 colon cancer xenograft in Nude mice; format: in vivo
Method: 0.5x10^6 DLD1/ GFP^+ (cells expressing green fluorescent protein) cells were injected per flanks into 6 week-old female Nude mice (Janvier Labs). CAP2 (10mg/kg) complexed with cyclodextrine as vehicle, or vehicle alone, were injected daily intra-peritoneally (IP) once the tumors were palpable (25-50 mm^3). Tumor volumes were measured every other day with a caliper. Animals were sacrificed at the end of experiment and tumors harvested.
CAP2 from four independent batches supplied by Analyticon Discovery was dissolved in DMSO and suspended in 45% beta-cyclodextrin. 45% beta-cyclodextrin was used as vehicle for controls. 150µl of drug or vehicle alone was administered per mouse daily.
GFP^+ DLD1-engrafted mice were treated with cyclodextrin-conjugated CAP2 at 10mg/kg via IP […] starting at the time when tumors were palpable. […] Analyses of gene expression using human-specific primers in treated tumors (using the excised area where remnant DLD-GFP^+ cells could be found) confirmed the repression of human AXIN2, ASCL2 and LGR5 (Table 11).

CC1=C(C)C(=O)O[C@@H]([C@](C)(O)[C@]2(O)CC[C@@]3(O)[C@@H]4CC=C5C=CCC(=O)[C@]5(C)[C@H]4CC[C@]23C)C1 [CAP2]
clonogenic cancer stem cells in serial spheroid assays (Ls174T cells): exhaustion of clonogenic cancer stem cells
epithelial island morphology (CC14 cells [1]): totally disrupted
primary 3D clonal spheroids (DLD1 cells): dose-dependent decrease in primary spheroids
level of CYCLIN D1 (Western blot) (CYCLIN D1): decrease in the level of TCF target CYCLIN D1
effect on cell growth (growth curves) (CC14 cells [2]): growth repressive effect
side effects (DLD1 xenografts; DLD1 xenograft, Nude mice, 10mg/kg IP): without any visible side effects
tumor growth (DLD1 xenografts; DLD1 xenograft, Nude mice, cyclodextrin-conjugated CAP2 10mg/kg IP, vs cyclodextrin carrier): blockade of tumor growth
number of regressed tumors that re-grew (DLD1 xenografts; four DLD1 regressed tumors, 90 days following drug removal): one
